Biological target: human NOP receptor (Homo sapiens, UniProt P41146)
Test: Calcium mobilization assay in CHO cells stably coexpressing the NOP receptor and the Gαqi5 chimeric G protein
Conditions: CHOhNOP + Gαqi5 cells; Fluo-4 AM, FlexStation II, 37 °C; four-parameter logistic fit; mean of 5 or at least 6 experiments in duplicate
Procedure: Drugs and reagents: The reagents used were purchased from Sigma-Aldrich (St. Louis, MO, USA) and Thermo Fisher Scientific (Waltham, MA, USA). […] Concentrated solutions of ligands were made in distilled water (1 mM) and kept at −20 °C until use. Successive dilutions of ligands were made in Hank’s Balanced Salt Solution (HBSS) and HEPES buffer (containing 0.005% Bovine Serum Albumine (BSA)).
Cell Culture: Chinese Hamster Ovary (CHO) cells stably coexpressing the NOP opioid receptors and the Gαqi5 protein were used. […]
Calcium Mobilization Assay: Calcium mobilization studies were performed using the automated fluorometer microplate reader FlexStation II (Molecular Devices, Sunnyvale, CA, USA), which was employed to detect changes in fluorescence intensity. […] After placing both plates (cell culture and compound plate) into the fluorometric imaging plate reader FlexStation II, fluorescence changes were measured. […] Maximum change in fluorescence, expressed as percent over the baseline fluorescence, was used to determine agonist response.
Data analysis and terminology: All data were analyzed using Graph Pad Prism 6.0 (La Jolla, CA, USA). […] Data were expressed as mean ± sem of 5 experiments performed in duplicate. Agonist effects were expressed as the maximum change in percent over the baseline fluorescence. Baseline fluorescence was measured in wells treated with vehicles. […]

Chain of human NOP receptor (P41146 whole entry): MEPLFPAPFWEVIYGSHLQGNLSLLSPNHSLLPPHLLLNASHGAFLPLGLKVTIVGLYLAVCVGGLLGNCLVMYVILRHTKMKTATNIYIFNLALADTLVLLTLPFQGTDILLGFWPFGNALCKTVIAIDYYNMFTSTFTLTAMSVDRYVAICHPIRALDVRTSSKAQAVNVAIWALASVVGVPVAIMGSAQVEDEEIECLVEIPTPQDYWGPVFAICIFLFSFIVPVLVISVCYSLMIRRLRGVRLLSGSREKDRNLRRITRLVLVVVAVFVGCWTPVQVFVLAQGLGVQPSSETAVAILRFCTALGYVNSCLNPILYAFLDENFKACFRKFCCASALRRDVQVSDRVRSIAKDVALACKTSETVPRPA

For [Dmt^1]N/OFQ(1-13)-NH2, the “pEC50 (CL95%)” value was 8.35 (7.94–8.77).

Source: article PMC10675785, “(L)-Monomethyl Tyrosine (Mmt): New Synthetic Strategy via Bulky ‘Forced-Traceless’ Regioselective Pd-Catalyzed C(sp^2)–H Activation” (Pharmaceuticals, 2023)
